Data from patent US10392389B2, “Heterocyclic compounds for the inhibition of PASK” (BioEnergenix, LLC, priority 2012, dated 2019).

Target: T1, PASK (Invitrogen) (Homo sapiens, UniProt Q96RG2)
T1 construct: IC50 Kinase Domain; purchased Invitrogen
Experiment: PAS Kinase FRET Assay
Assay type: biochemical
Conditions: PAS kinase TR-FRET assay (665 nm/615 nm); read-out: IC50 Kinase Domain
Text: Biochemical Assay for hPASK Activity
The aim of the FRET assay is to determine the inhibition potential of test compounds on targeted kinase. This assay platform provides a homogenous screening method for measuring kinase activity by quantitating the amount of phospho-substrate in solution following a kinase reaction.
In the presence of kinase and ATP, the Ulight-peptide is phosphorylated and captured by an anti-phospho-substrate antibody, which brings the Eu chelate donor and Ulight acceptor dyes into close proximity. Upon excitation at 340 nm, the Eu chelate transfers its energy to the Ulight dye, resulting in a fluorescent light emission at 665 nm.
Titration of kinase at 1 mM ATP was achieved via the following protocol. After making serial three-fold dilutions of PASK (Invitrogen) in reaction buffer across the plate; 5 μl of kinase dilution and 5 μl substrate/ATP mix were added to the wells of the white Optiplate-384 (PerkinElmer). The contents of the plate were and incubated at RT for 1 h. The reaction was stopped by adding 5 μl of stop solution to each test well followed by mixing and incubation at RT for 10 minutes. 5 μl of detection mix (detection antibody diluted in detection buffer) was added; the contents of the plate were mixed and then incubated in the dark for 1 hour at RT. The signal was recorded at TR-FRET mode (665 nm/615 nm). The results were graphed to calculate the EC50.
Titration of ATP at the EC50 concentration of kinase to determine ATP Km,app. was performed using the following method. After making serial dilutions of ATP (Invitrogen), 5 μl of ATP dilution and 5 μl substrate/kinase mix were added to the wells of the white Optiplate-384 (PerkinElmer). The contents of the plate were and incubated at RT for 1 h. The reaction was stopped by adding 5 μl of stop solution to each test well followed by mixing and incubation at RT for 10 minutes. 5 μl of detection mix (detection antibody diluted in detection buffer) was added; the contents of the plate were mixed and then incubated in the dark for 1 hour at RT. The signal was recorded at TR-FRET mode (665 nm/615 nm). The results were graphed to calculate the EC50 as the ATP Km,app.
Compound screening was done via the following method. 10 mM stock solution of test compound in DMSO was prepared by dissolving test compound in DMSO at RT for 1 hour, and then sonicating at 100% output for 8 minutes. If compound is not soluble under this condition, it was diluted to 3 mM. Kinase reaction buffer was prepared containing 10 mM MgCl2, 50 mM HEPES, 1 mM EGTA, 0.01% TWEEN-20, 2 mM DTT. Serial dilutions of the test compounds were prepared at 4× final assay concentrations using Freedom EVO200® dispensing system as follows: 12×10^−5 M, 4×10^−5 M, 1.33×10^−5 M, 4.44×10^−6 M, 1.48×10^−6 M, 4.92×10^−7 M, 1.65×10^−7 M, […], 1.82×10^−8M, 6.09×10^−9, 2.03×10^−9 M. Test compounds (2.5 μl at 4× the final assay concentration) was added to wells using Freedom EVO200® dispensing system. As a positive control, 2.5 μl of positive compound was added to assay wells, and 2.5 μl of DMSO to assay wells as vehicle control. Kinase solution was prepared in reaction buffer at 2× final assay concentration. Kinase solution (5 μl) was added to each well of the assay plate. The substrate and ATP solution was prepared in kinase reaction buffer at 4× final assay concentration. The kinase reaction was started by adding 2.5 μl of substrate+ATP mix solution to each well of the assay plate. The plate is mixed on a plate shaker; then covered and allowed to react for 2 hours in the dark at 25° C. without shaking. The reaction was stopped by adding 5 μl of stop solution to each test well followed by mixing and incubation at RT for 10 minutes in the dark. 5 μl of detection mix (detection antibody diluted in detection buffer) was added; the contents of the plate were mixed and then incubated in the dark for 1 hour at RT. The signal was recorded at TR-FRET mode (665 nm/615 nm).

T1 sequence (Q96RG2 999-1251 limits assumed): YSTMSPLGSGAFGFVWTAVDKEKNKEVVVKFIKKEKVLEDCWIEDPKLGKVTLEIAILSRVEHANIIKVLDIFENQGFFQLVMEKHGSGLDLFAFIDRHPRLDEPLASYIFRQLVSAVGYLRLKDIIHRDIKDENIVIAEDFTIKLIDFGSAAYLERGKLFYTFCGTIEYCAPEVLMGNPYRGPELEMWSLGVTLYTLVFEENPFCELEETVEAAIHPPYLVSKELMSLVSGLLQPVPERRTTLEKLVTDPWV

Structure (SMILES) | IC50
Cc1noc(-c2cnn3c(=O)cc(-c4ccc(Cl)c(OCC(F)(F)F)c4)[nH]c23)n1 [Example 92, 5-[4-chloro-3-(2,2,2-trifluoroethoxy)phenyl]-3-(3-methyl-1,2,4-oxadiazol-5-yl)-4H,7H-pyrazolo[1,5-a]pyrimidin-7-one] | ≤ 10 µM
Cn1ncc2cc(-c3cc(=O)n4ncc(C#N)c4[nH]3)ccc21 [Example 108, 5-(1-methyl-1H-indazol-5-yl)-7-oxo-4H,7H-pyrazolo[1,5-a]pyrimidine-3-carbonitrile] | ≤ 10 µM
Cc1cnc(-c2cnn3c(=O)cc(-c4ccc5c(cnn5C)c4)[nH]c23)o1 [Example 107, 5-(1-Methyl-1H-indazol-5-yl)-3-(5-methyloxazol-2-yl)pyrazolo[1,5-a]pyrimidin-7(4H)-one] | ≤ 10 µM
CCc1nn2c(=O)cc(-c3ccc4c(cnn4CC)c3)[nH]c2c1-c1nc(C)no1 [Example 114, 2-ethyl-5-(1-ethyl-1H-indazol-5-yl)-3-(3-methyl-1,2,4-oxadiazol-5-yl)pyrazolo[1,5-a]pyrimidin-7(4H)-one] | ≤ 10 µM
CCn1nc(C)c2cc(-c3cc(=O)n4ncc(-c5ncc(C)o5)c4[nH]3)ccc21 [Example 105, 5-(1-Ethyl-3-methyl-1H-indazol-5-yl)-3-(5-methyloxazol-2-yl)pyrazolo[1,5-a]pyrimidin-7(4H)-one] | ≤ 10 µM
CCn1ncc2cc(-c3cc(=O)n4ncc(-c5ccn(C)n5)c4[nH]3)ccc21 [Example 32, 5-(1-ethyl-1H-indazol-5-yl)-3-(1-methyl-1H-pyrazol-3-yl)-4H,7H-pyrazolo[1,5-a]pyrimidin-7-one] | ≤ 10 µM
Cc1cnc(-c2cnn3c(=O)cc(-c4ccc(Cl)c(OC(F)(F)F)c4)[nH]c23)o1 [Example 38, 5-[4-chloro-3-(trifluoromethoxy)phenyl]-3-(5-methyloxazol-2-yl)-4H,7H-pyrazolo[1,5-a]pyrimidin-7-one] | ≤ 10 µM
O=c1cc(-c2ccc3occc3c2)[nH]c2c(-c3nccs3)cnn12 [Example 44, 5-(benzofuran-5-yl)-3-(thiazol-2-yl)pyrazolo[1,5-a]pyrimidin-7(4H)-one] | ≤ 10 µM
Cc1noc2ccc(-c3cc(=O)n4ncc(-c5ncco5)c4[nH]3)cc12 [Example 110, 5-(3-methylbenzo[d]isoxazol-5-yl)-3-(oxazol-2-yl)pyrazolo[1,5-a]pyrimidin-7(4H)-one] | ≤ 10 µM
COc1cc(-c2cc(=O)n3ncc(-c4ncc(-c5ccccc5)o4)c3[nH]2)ccc1Cl [Example 63, 5-(4-chloro-3-methoxyphenyl)-3-(5-phenyloxazol-2-yl)-4H,7H-pyrazolo[1,5-a]pyrimidin-7-one] | ≤ 10 µM
CCn1ncc2ccc(-c3cc(=O)n4ncc(-c5nc(C)no5)c4[nH]3)cc21 [Example 111, 5-(1-Ethyl-1H-indazol-6-yl)-3-(3-methyl-1,2,4-oxadiazol-5-yl)pyrazolo[1,5-a]pyrimidin-7(4H)-one] | ≤ 10 µM
Cc1noc(-c2c(O)nn3c(=O)cc(-c4ccc(Cl)cc4)[nH]c23)n1 [Example 9, 5-(4-chlorophenyl)-2-hydroxy-3-(3-methyl-1,2,4-oxadiazol-5-yl)-4H,7H-pyrazolo[1,5-a]pyrimidin-7-one] | ≤ 10 µM
Cc1cnc(-c2cnn3c(=O)cc(-c4ccc(Cl)c(Cl)c4)[nH]c23)s1 [Example 102, 5-(3,4-dichlorophenyl)-3-(5-methylthiazol-2-yl)pyrazolo[1,5-a]pyrimidin-7(4H)-one] | ≤ 10 µM
CCCc1nn2c(=O)cc(-c3ccc4c(cnn4CC)c3)[nH]c2c1-c1nc(C)no1 [Example 116, 5-(1-ethyl-1H-indazol-5-yl)-3-(3-methyl-1,2,4-oxadiazol-5-yl)-2-propyl-4H,7H-pyrazolo[1,5-a]pyrimidin-7-one] | ≤ 10 µM
Cc1coc(-c2cnn3c(=O)cc(-c4ccc5[nH]nnc5c4)[nH]c23)n1 [Example 11, 5-(1H-1,2,3-benzotriazol-5-yl)-3-(4-methyl-1,3-oxazol-2-yl)-4H,7H-pyrazolo[1,5-a]pyrimidin-7-one] | ≤ 10 µM
Cc1noc(-c2c(C)nn3c(=O)cc(-c4ccc(Cl)cc4)[nH]c23)n1 [Example 8, 5-(4-chlorophenyl)-2-methyl-3-(3-methyl-1,2,4-oxadiazol-5-yl)-4H,7H-pyrazolo[1,5-a]pyrimidin-7-one] | ≤ 10 µM
CCn1ncc2cc(-c3cc(=O)n4nc(C)c(-c5nc(C)co5)c4[nH]3)ccc21 [Example 42, 5-(1-ethyl-1H-indazol-5-yl)-2-methyl-3-(4-methyloxazol-2-yl)-4H,7H-pyrazolo[1,5-a]pyrimidin-7-one] | ≤ 10 µM
Cc1cnc(-c2cnn3c(=O)cc(-c4ccc(Cl)cc4)[nH]c23)o1 [Example 47, 5-(4-chlorophenyl)-3-(5-methyloxazol-2-yl)pyrazolo[1,5-a]pyrimidin-7(4H)-one] | ≤ 10 µM
CCn1ncc2cc(-c3cc(=O)n4ncc(-c5nccs5)c4[nH]3)ccc21 [Example 26, 5-(1-ethyl-1H-indazol-5-yl)-3-(thiazol-2-yl)-4H,7H-pyrazolo[1,5-a]pyrimidin-7-one] | ≤ 10 µM
CCc1coc(-c2cnn3c(=O)cc(-c4ccc5c(cnn5CC)c4)[nH]c23)n1 [Example 28, 5-(1-ethyl-1H-indazol-5-yl)-3-(4-ethyloxazol-2-yl)pyrazolo[1,5-a]pyrimidin-7(4H)-one] | ≤ 10 µM
CCn1nnc2cc(-c3cc(=O)n4ncc(-c5ncco5)c4[nH]3)ccc21 [Example 49, 5-(1-ethyl-1H-benzo[d][1,2,3]triazol-5-yl)-3-(oxazol-2-yl)pyrazolo[1,5-a]pyrimidin-7(4H)-one] | ≤ 10 µM
COc1nn2c(=O)cc(-c3ccc(Cl)cc3)[nH]c2c1-c1nc(C)no1 [Example 10, 5-(4-chlorophenyl)-2-methoxy-3-(3-methyl-1,2,4-oxadiazol-5-yl)-4H,7H-pyrazolo[1,5-a]pyrimidin-7-one] | ≤ 10 µM
CCc1cnc(-c2cnn3c(=O)cc(-c4ccc5[nH]nnc5c4)[nH]c23)o1 [Example 6, 5-(1H-1,2,3-benzotriazol-5-yl)-3-(5-ethyl-1,3-oxazol-2-yl)-4H,7H-pyrazolo[1,5-a]pyrimidin-7-one] | ≤ 10 µM
Cc1cnc(-c2cnn3c(=O)cc(-c4ccc5c(C)noc5c4)[nH]c23)o1 [Example 119, 5-(3-Methylbenzo[d]isoxazol-6-yl)-3-(5-methyloxazol-2-yl)pyrazolo[1,5-a]pyrimidin-7(4H)-one] | ≤ 10 µM
CCn1ncc2cc(-c3cc(=O)n4ncc(-c5nnc(C)o5)c4[nH]3)ccc21 [Example 31, 5-(1-ethyl-1H-indazol-5-yl)-3-(5-methyl-1,3,4-oxadiazol-2-yl)-4H,7H-pyrazolo[1,5-a]pyrimidin-7-one] | ≤ 10 µM
Cc1noc(-c2cnn3c(=O)cc(-c4ccc5c(c4)OCCO5)[nH]c23)n1 [Example 97, 5-(2,3-dihydrobenzo[b][1,4]dioxin-6-yl)-3-(3-methyl-1,2,4-oxadiazol-5-yl)pyrazolo[1,5-a]pyrimidin-7(4H)-one] | ≤ 10 µM
CCc1noc2cc(-c3cc(=O)n4ncc(C(N)=O)c4[nH]3)ccc12 [Example 123, 5-(3-ethylbenzo[d]isoxazol-6-yl)-7-oxo-4,7-dihydropyrazolo[1,5-a]pyrimidine-3-carboxamide] | ≤ 10 µM
Cc1noc(-c2cnn3c(=O)cc(-c4ccc5occc5c4)[nH]c23)n1 [Example 62, 5-(benzofuran-5-yl)-3-(3-methyl-1,2,4-oxadiazol-5-yl)-4H,7H-pyrazolo[1,5-a]pyrimidin-7-one] | ≤ 10 µM
